# Patent US20210369678A1, “BENZIMIDAZOLE DERIVATIVE FOR USE IN THE TREATMENT OF INFLAMMATORY DISORDERS” (Akebia Therapeutics, Inc., priority 2018, published 2021)
# Entries after “also recorded” stand apart in the source; their conditions may differ. Like-named read-outs stand apart in the source and are kept apart here.
# Key:
# [1] = Caco-2 cell monolayer permeability; assay type: in vitro ADME; conditions: human, tested at 10 μM, read-out: apical-to-basolateral apparent permeability Papp
# Description: In Caco-2 cell monolayers, Compound 1 had low apical-to-basolateral apparent permeability Papp value of <0.2×10^−6 cm/s when tested at 10 μM.
# [2] = IV/p.o. pharmacokinetic study in monkey; assay type: in vivo, male cynomolgus monkeys
# Description: (§1) Intravenous and oral (IV/p.o.) pharmacokinetic (PK) studies in rat, dog and monkey were carried out to facilitate the projection of human PK for Compound 1.
# (§2) In the rat studies, Compound 1 was dosed both as a suspension (in 0.5% HPMC) and as a solution in 20% HPPCD. Experiments in the dog and monkey were dosed as a suspension in 0.5% HPMC.
# [3] = IV/p.o. pharmacokinetic study in rat; assay type: in vivo, male Sprague Dawley rats
# Description: Separate cohorts (n=3) of non-fasted male Sprague Dawley rats were administered Compound 1 at a dose of 1 mg/kg intravenously (IV) via tail vein, 5 mg/kg orally as a solution, or 5 mg/kg orally as a suspension. Blood samples were collected at 0.033 (IV only), 0.083 (IV only), 0.25, 0.5, 1, 2, 4, 8, and 24 hrs post dose after administration. Blood was harvested via the jugular vein catheter. Blood samples were collected into tubes containing K2EDTA and placed on wet ice. The plasma fraction was separated by centrifugation and frozen at −20 to −80 ° C. Concentrations of Compound 1 in plasma were determined using a qualified liquid chromatography-triple quadrupole mass spectrometry. FIG. 2 depicts the plasma concentration of Compound 1 in healthy male SD rats over 24 hours.
# as §1, §2
# [4] = test system: TNBS-induced colitis; assay: Trinitrobenzene sulfonic acid (TNBS)-induced colitis model; assay type: in vivo, male SJL mice
# Description: A study was conducted to determine the effects of Compound 1 compared to positive control prednisolone dosed by the oral (p.o.) route in trinitrobenzene sulfonic acid (TNBS)-induced colitis in male SJL mice (FIG. 5). The mice were divided into 5 groups. The mice were fasted for 12 to 16 hours prior to TNBS challenge. On day 0 of the study, mice in groups 2 through 5 were infused intrarectally (IR) with 50 μL TNBS solution (1.5 mg in 50% EtOH/PBS per mouse) to induce colitis. The mice in group 2 were dosed (PO) daily (QD) on days 0 to 3 with vehicle (0.5% HPMC, 0.1% Tween 80 in water). The mice in group 4 were dosed p.o. daily on days 0 to 3 with Compound 1 at 10 mpk, and the mice in group 5 were dosed p.o. daily on days 0 to 3 with Compound 1 at 30 mpk. Prednisone (group 3) was used as a positive control and was dosed p.o., QD on days 0 to 3. Group 1 served as naïve controls. On study day 4, the mice were anesthetized with Isoflurane, bled to exsanguination, and then euthanized for necropsy and tissue collection. Efficacy evaluation was based on animal body weight measurements, colon weights, colon lengths, colon weight per length ratios, histopathology of proximal and distal colons—evaluated as proximal only, distal only, or full colon (proximal and distal). Longitudinal sections of proximal and distal colon were stained with hematoxylin and eosin (H&E). Sections were analyzed using the criteria below and were scored for inflammation, gland loss, and mucosal necrosis. [table] [table] [table] [table] The histopathology sum score was calculated as a sum of inflammation, gland loss, erosion/necrosis (derived from the measure of total length vs. length of mucosal necrosis, i.e., percent), and hyperplasia scores.
# [5] = test system: systemic EPO; assay: Systemic EPO response after oral and intraperitoneal dosing (MSD assay); assay type: in vivo, male Balb/c mice; conditions: 6 h post dosing
# Description: (§3) The effect of both oral (p.o.) and intraperitoneal (i.p.) doses of Compound 1 on systemic EPO in male Balb/c mice was investigated, along with plasma drug concentrations at 1 h and 6 h post dosing. Systemic EPO was measured 6 h post dosing of Compound 1 using a commercially-available MSD assay system, correlated to standard curves. Plasma drug concentrations were quantitated by LC MS/MS. […] FIG. 1 depicts the EPO response to oral (p.o.) and intraperitoneal (i.p.) doses of Compound 1 at 6 h in BalbC mice.
# [6] = test system: DSS-induced colitis; assay: Dextran sulfate sodium (DSS)-induced colitis model; assay type: in vivo, mice
# Description: Colitis was induced in 121 mice by exposure to 3% DSS-treated drinking water from Day 0 to Day 5. Animals were dosed via oral gavage (p.o.) with Compound 1, 6-thioguanine, or vehicle control once a day (q.d.) from Day 6 to 19. Video endoscopy was performed on days 10, 14, and 19. At these time points, colitis severity was assessed in all animals using video endoscopy, where images were taken and colitis severity scored by a blinded observer. During each endoscopy procedure, stool consistency was recorded using a 0-4 scale and an image from each animal was captured at the most severe region of disease that was identified. Following endoscopy on Day 19, all animals for the efficacy component were euthanized with CO2 inhalation. Blood was collected via cardiac puncture and placed in K2EDTA tubes for preparation of plasma. A small whole blood sample was retained for the assessment of hemoglobin and hematocrit while the remaining sample was processed to plasma, then split into two samples and snap frozen. A complete blood count, including hematocrit and hemoglobin levels, was assessed using an automated PCE-90 Vet hematology unit (HTI). FIG. 3 depicts the serum hemoglobin concentration after 14 days of oral dosing Compound 1 in mice with dextran sulfate sodium (DSS)-induced colitis. FIG. 4 depicts Endoscopy Colitis Scores in mice with dextran sulfate sodium (DSS)-induced colitis dosed via oral gavage with Compound 1, 6-thioguanine, or vehicle control once a day after 19 days.
# [7] = IV/p.o. pharmacokinetic study in dog; assay type: in vivo, male beagle dogs; conditions: for bioavailability: male, beagle, po, p.o. suspension in 0.5% HPMC
# Description: as §1, §2
# [8] = Plasma drug concentrations after oral and intraperitoneal dosing (LC MS/MS); assay type: in vivo, male Balb/c mice; conditions: male, Balb/c, mouse, read-out: blood levels; for concentration at 1 h: 1 h post dosing; for concentration at 6 h: 6 h post dosing
# Description: as §3
# [9] = 10 and 30 mg/kg p.o. QD days 0 to 3
smiles,measurement,setting,value
"O=C(O)c1cnn(-c2nc3cc(S(=O)(=O)c4ccccc4)c(Cl)cc3[nH]2)c1 [Compound 1, 1-(6-chloro-5-(phenylsulfonyl)-1H-benzo[d]imidazol-2-yl)-1H-pyrazole-4-carboxylic acid]",Papp A→B at 10 μM,[1],< 0.2 ×10⁻⁶ cm/s
same,estimated fa*fg (fa: fraction absorbed; fg: fraction that escapes gut metabolism),[2],≤ 0.12
same,terminal t1/2,[2],short
same,bioavailability,"[2]; male, cynomolgus monkey, plasma, po, p.o. suspension in 0.5% HPMC",≤ 5%
same,estimated fa*fg (fa: fraction absorbed; fg: fraction that escapes gut metabolism),[3],≤ 0.12
same,terminal t1/2,[3],short
same,bioavailability,"[3]; male, Sprague-Dawley, plasma, po, 5 mg/kg, p.o. dosing",≤ 5%
same,body weight loss,[4]; [9],statistically significant inhibition of body weight loss; also recorded: protects against body weight loss
same,colon histopathology,[4]; [9],improvements in colon histopathology
same,colon weight/length ratio,[4]; [9],decreased colon weight/length ratios; also recorded: improves colon weight/length ratio
same,full-colon and proximal-colon histopathology,[4]; 10 or 30 mpk p.o. QD days 0 to 3,significant beneficial effects
same,histopathology inflammation score,[4]; p.o. QD days 0 to 3,improves the histopathology inflammation score
same,histopathology summed score,[4]; p.o. QD days 0 to 3,improves the histopathology summed score
same,efficacy in mouse model of inflammatory bowel disease,[4]; p.o. dosing,excellent efficacy
same,EPO stimulation,[5]; 100 umol/kg i.p.,34 fold above vehicle control
same,EPO stimulation,[5]; 100 umol/kg p.o.,no EPO stimulation
same,efficacy in mouse model of inflammatory bowel disease,[6]; p.o. dosing,excellent efficacy
same,systemic pharmacology resulting in increases in EPO/hematocrit,"[6]; p.o. dosing, mouse models of inflammatory bowel disease",no systemic pharmacology resulting in increases in EPO/hematocrit was observed
same,Endoscopic Colitis Scores,"[6]; p.o. q.d. Day 6 to 19, 3% DSS Day 0 to 5",effective at ameliorating DSS induced colitis
same,estimated fa*fg (fa: fraction absorbed; fg: fraction that escapes gut metabolism),[7],≤ 0.12
same,terminal t1/2,[7],short
same,bioavailability,[7]; in vivo,≤ 5%
same,bioavailability,[7]; plasma,< 5%
same,concentration at 1 h,"[8]; ip, 100 umol/kg i.p.",42200 nM
same,concentration at 6 h,"[8]; ip, 100 umol/kg i.p.",5100 nM
same,concentration at 1 h,"[8]; po, 100 umol/kg p.o.",100 nM
same,concentration at 6 h,"[8]; po, 100 umol/kg p.o.",20 nM
